Measured values: ChEMBL document CHEMBL4316622, “Discovery of novel pyrazole derivatives as potential anticancer agents in MCL” (Bioorg Med Chem Lett, 2019)

Columns and labels:
[1] = Antiproliferative activity against human Mino cells assessed as inhibition of cell proliferation incubated for 72 hrs by Cell-titer-Glo luminescent cell viability assay; assay type: functional, cell-based
[2] = test system: Maver1; test: Antiproliferative activity against human Maver1 cells assessed as inhibition of cell proliferation incubated for 72 hrs by Cell-titer-Glo luminescent cell viability assay; assay type: functional, cell-based; conditions: Maver1, 72 h
[3] = test system: JeKo-1; test: Antiproliferative activity against human JeKo1 cells assessed as inhibition of cell proliferation incubated for 72 hrs by Cell-titer-Glo luminescent cell viability assay; assay type: functional, cell-based; conditions: JeKo-1, 72 h
[4] = test system: Rec1; test: Antiproliferative activity against human Rec1 cells assessed as inhibition of cell proliferation incubated for 72 hrs by Cell-titer-Glo luminescent cell viability assay; assay type: functional, cell-based; conditions: Rec1, 72 h
[5] = test system: Z-138; test: Antiproliferative activity against human Z138 cells assessed as inhibition of cell proliferation incubated for 72 hrs by Cell-titer-Glo luminescent cell viability assay; assay type: functional, cell-based; conditions: Z-138, 72 h
[6] = Stability in human liver microsomes assessed as compound remaining incubated of 60 mins in presence of NADPH regenerating system by LC/MS analysis
[7] = Half life in human liver microsomes further incubated of 5 to 60 mins in presence of NADPH regenerating system by LC/MS analysis
[8] = in vitro; conditions: human
Description: Hepatic clearance in human liver microsomes further incubated of 5 to 60 mins in presence of NADPH regenerating system by LC/MS analysis

[9] = in vitro; conditions: human; remark: listed apart in the source
Description: Intrinsic clearance in human liver microsomes further incubated of 5 to 60 mins in presence of NADPH regenerating system by LC/MS analysis

SMILES | IC50 [1] [µM] | IC50 [2] [µM] | IC50 [3] [µM] | IC50 [4] [µM] | IC50 [5] [µM] | remaining at 1 h ([6]; liver microsomes) [%] | half-life ([7]; liver microsomes) [min] | CLint scaled ([8]; liver microsomes) [mL/min/kg] | microsomal CLint ([9]; liver microsomes) [µL/min/mg] | remaining at 1 h ([6]; microsomes) [%] | half-life ([7]; microsomes) [min] | CLint scaled ([8]; microsomes) [mL/min/kg] | microsomal CLint ([9]; microsomes) [µL/min/mg]
C/C=C/C(=O)Nc1cccc(Cn2nc(-c3ccc(Oc4ccccc4)cc3)cc2C(=O)O)c1 | 23.3 | 31.6 | > 60 | 26 | 24.1 |  |  |  |  |  |  |  | 
C=CC(=O)Nc1cccc(Cn2nc(-c3ccc(Oc4ccccc4)cc3)cc2CO)c1 | 3.3 | 6.7 | 5.2 | 1.3 | 6 |  |  |  |  |  |  |  | 
C=CC(=O)N1CCCC(n2nc(-c3ccc(Oc4ccccc4)cc3)cc2C(=O)OCC)C1 (racemic) | 42.3 | > 60 | 21.2 | 13.8 | 44 |  |  |  |  |  |  |  | 
C=CC(=O)Nc1ccc(Cn2nc(-c3ccc(Oc4ccccc4)cc3)cc2C(=O)OCC)cc1 | 5.4 | 13.3 | 10.9 | 2.8 | 12.5 |  |  |  |  |  |  |  | 
CCOC(=O)c1cc(-c2ccc(Oc3ccccc3)cc2)nn1Cc1cccc(NC(=O)CCl)c1 | 1 | 0.5 | 0.4 | 0.4 | 0.4 |  |  |  |  |  |  |  | 
O=C(O)c1cc(-c2ccc(Oc3ccccc3)cc2)nn1C1CCCN(C(=O)CCl)C1 (racemic) | 2.5 | 0.4 | 3.6 | 2.2 | 2.8 |  |  |  |  |  |  |  | 
C=CC(=O)N1CCCC(n2nc(-c3ccc(Oc4ccccc4)cc3)cc2CO)C1 (racemic) | 15.4 | 30.5 | 11.9 | 5.4 | 14.6 |  |  |  |  |  |  |  | 
C=CC(=O)Nc1ccc(Cn2nc(-c3ccc(Oc4ccccc4)cc3)cc2C(=O)O)cc1 | > 60 | > 60 | > 60 | > 60 | > 60 |  |  |  |  |  |  |  | 
O=C(CCl)Nc1cccc(Cn2nc(-c3ccc(Oc4ccccc4)cc3)cc2CO)c1 | 0.4 | 0.4 | 0.4 | 0.4 | 0.4 | 1.5 | 10.6 | 118 | 131 |  |  |  | 
C/C=C/C(=O)Nc1ccc(Cn2nc(-c3ccc(Oc4ccccc4)cc3)cc2CO)cc1 | 40.2 | 48.4 | > 60 | 12.2 | 54.5 |  |  |  |  |  |  |  | 
C/C=C/C(=O)N1CCCC(n2nc(-c3ccc(Oc4ccccc4)cc3)cc2CO)C1 (racemic) | 45 | > 60 | > 60 | 27.2 | 51.1 |  |  |  |  |  |  |  | 
O=C(CCl)Nc1ccc(Cn2nc(-c3ccc(Oc4ccccc4)cc3)cc2C(=O)O)cc1 | 4.5 | 1.2 | 2.5 | 4 | 1.5 |  |  |  |  |  |  |  | 
C=CC(=O)Nc1cccc(Cn2nc(-c3ccc(Oc4ccccc4)cc3)cc2C(=O)OCC)c1 | 5.7 | 8.6 | 7.6 | 3.3 | 7.8 |  |  |  |  |  |  |  | 
C=CC(=O)Nc1ccc(Cn2nc(-c3ccc(Oc4ccccc4)cc3)cc2CO)cc1 | 5.2 | 7 | 8 | 3.5 | 6.8 |  |  |  |  |  |  |  | 
C=CC(=O)Nc1cccc(Cn2nc(-c3ccc(Oc4ccccc4)cc3)cc2C(=O)O)c1 | 24.3 | 37.4 | > 60 | 33.1 | 28.5 |  |  |  |  |  |  |  | 
C=CC(=O)N1CCC[C@@H](n2nc(-c3ccc(Oc4ccccc4)cc3)c3c(N)ncnc32)C1 [IBRUTINIB] | 10.1 | 10.4 | 1.5 | 1.1 | 11.3 |  |  |  |  |  |  |  | 
O=C(CCl)Nc1ccc(Cn2nc(-c3ccc(Oc4ccccc4)cc3)cc2CO)cc1 | 0.4 | 0.4 | 0.4 | 0.4 | 0.4 |  |  |  |  |  |  |  | 
CCOC(=O)c1cc(-c2ccc(Oc3ccccc3)cc2)nn1C1CCCN(C(=O)CCl)C1 (racemic) | 1.2 | 1.2 | 0.8 | 0.4 | 1.3 |  |  |  |  |  |  |  | 
O=C(CCl)Nc1cccc(Cn2nc(-c3ccc(Oc4ccccc4)cc3)cc2C(=O)O)c1 | 11.7 | 4.7 | 6.3 | 7.1 | 9.1 |  |  |  |  |  |  |  | 
C[C@]12CC[C@H]3[C@@H](CCC4=CC(=O)CC[C@@]43C)[C@@H]1CC[C@@H]2O [TESTOSTERONE] |  |  |  |  |  |  |  |  |  | 4.2 |  |  | 
CCOC(=O)c1cc(-c2ccc(Oc3ccccc3)cc2)nn1Cc1ccc(NC(=O)CCl)cc1 | 0.6 | 0.4 | 0.4 | 0.4 | 0.4 |  |  |  |  |  |  |  | 
O=C(O)Cc1ccccc1Nc1c(Cl)cccc1Cl [DICLOFENAC] |  |  |  |  |  |  |  |  |  |  | 11.5 | 109 | 121
C/C=C/C(=O)N1CCCC(n2nc(-c3ccc(Oc4ccccc4)cc3)cc2C(=O)O)C1 (racemic) | > 60 | > 60 | > 60 | 31 | > 60 |  |  |  |  |  |  |  | 
C=CC(=O)N1CCCC(n2nc(-c3ccc(Oc4ccccc4)cc3)cc2C(=O)O)C1 (racemic) | > 60 | > 60 | > 60 | 50 | > 60 |  |  |  |  |  |  |  | 
C/C=C/C(=O)N1CCCC(n2nc(-c3ccc(Oc4ccccc4)cc3)cc2C(=O)OCC)C1 (racemic) | 11.7 | 19.6 | 26.5 | 5.1 | 19.1 |  |  |  |  |  |  |  | 
C/C=C/C(=O)Nc1cccc(Cn2nc(-c3ccc(Oc4ccccc4)cc3)cc2C(=O)OCC)c1 | 16.5 | 14.2 | 16.7 | 7.8 | 8.9 |  |  |  |  |  |  |  | 
C/C=C/C(=O)Nc1cccc(Cn2nc(-c3ccc(Oc4ccccc4)cc3)cc2CO)c1 | 4.9 | 8.1 | 22.6 | 3.4 | 5.7 |  |  |  |  |  |  |  | 
C/C=C/C(=O)Nc1ccc(Cn2nc(-c3ccc(Oc4ccccc4)cc3)cc2C(=O)OCC)cc1 | 33.2 | > 60 | 52.5 | 13.1 | > 60 |  |  |  |  |  |  |  | 
C/C=C/C(=O)Nc1ccc(Cn2nc(-c3ccc(Oc4ccccc4)cc3)cc2C(=O)O)cc1 | 23.1 | > 60 | > 60 | 23.6 | > 60 |  |  |  |  |  |  |  | 
O=C(CCl)N1CCCC(n2nc(-c3ccc(Oc4ccccc4)cc3)cc2CO)C1 (racemic) | 6 | 1.1 | 7.8 | 0.4 | 0.4 |  |  |  |  |  |  |  | 
